Experimental data published in US20240252673A1, “ANTI-TISSUE FACTOR ANTIBODY-DRUG CONJUGATES AND THEIR USE IN THE TREATMENT OF CANCER” (priority 2017, published 2024).
Where a SMILES comes first, the peptide text is derived from it. [ ]: non-standard residue; d: D form. The star is where a group is joined. Dolaproine = CO[C@@H]([C@@H]1CCCN1)[C@@H](C)C(=O)O; Dil = CC[C@H](C)[C@H](NC)[C@@H](CC(=O)O)OC; X1 = C[C@@H](N*)[C@@H](O)c1ccccc1; NMeV = CN[C@H](C(=O)O)C(C)C

Assay: Phase I/II dose-escalation study: plasma pharmacokinetics
Format: in vivo, human
Conditions: after tisotumab vedotin, cycle 1 and cycle 2, all dose cohorts (FIG. 4)
Protocol: A first-in-human phase I/II dose-escalating study following a 3+3 dose-escalation design was conducted in order to test the safety of tisotumab vedotin in 27 subjects with locally advanced and/or metastatic cancer of various types including cervical cancer (FIG. 2). Tisotumab vedotin was administered by intravenous infusion at doses ranging from 0.3 mg/kg to 2.2 mg/kg on day 1 of a 21-day cycle for four cycles (i.e., each treatment cycle was 3 weeks). Patients with stable disease (SD) or better at the end of four cycles had the option to continue treatment with tisotumab vedotin for eight additional cycles (FIG. 2). Tumor evaluations were performed by CT scans every six weeks. In order to qualify for SD, results of the CT scan scheduled for week six needed to be SD or better. Two CT scans were performed outside the per-protocol defined window.
A primary objective of the study was to assess the safety and tolerability in a mixed population of patients with specified solid tumors. Adverse event (AE) severity was graded according to Common Terminology Criteria for Adverse Events (CTCAE) version 4.03. Secondary objectives of the study included determining the pharmacokinetic (PK) profile of tisotumab vedotin and preliminary evaluation of anti-tumor activity as assessed according to Response Evaluation Criteria in Solid Tumors [RECIST] version 1.1. Dose-limiting toxicities (DLTs) were determined during the first cycle and were defined as grade≥3 events possibly related to tisotumab vedotin. […] Tumor biopsies were required at baseline for TF expression which was assessed by immunohistochemistry utilizing tisotumab. TF staining intensity was determined using the H-scoring system.
The geometric means (% CV) of the time to reach Cmax (Tmax)(hr), maximum concentration (Cmax)(ng/mL), and area under the concentration time curve (AUC)0-t (hr*ng/mL) was measured for the pharmacokinetics (PK) portion of the study (Table 3). Low levels of unconjugated MMAE were measured in systemic circulation (FIG. 4).

## CC[C@H](C)[C@@H]([C@@H](CC(=O)N1CCC[C@H]1[C@H](OC)[C@@H](C)C(=O)N[C@H](C)[C@@H](O)c1ccccc1)OC)N(C)C(=O)[C@@H](NC(=O)[C@@H](NC)C(C)C)C(C)C [MMAE, monomethyl auristatin E] (H-[NMeV]V[Dil][Dolaproine]-X1)
  unconjugated MMAE in systemic circulation: Low levels
